In patent US20240239861A1, “GLUCAGON-RECEPTOR SELECTIVE POLYPEPTIDES AND METHODS OF USE THEREOF” (i2O Therapeutics, Inc., priority 2016, published 2024):
One block for each molecule: values may come before it. *1 amine or outer side, *2 acyl side, *3 side chain or, on linkers, in order; H or OH if unused. Where a SMILES comes first, the peptide text is derived from it. Side-chain parts run from the residue outwards. [ ]: non-standard residue; d: D form. The star is where a group is joined. C18 diacid = O=C(O)CCCCCCCCCCCCCCCCC(=O)*; γGlu = O=C(O)[C@H](CCC(=O)[*:2])N[*:1]; Palmitoyl = CCCCCCCCCCCCCCCC(=O)*; AEEA = NCCOCCOCC(=O)O; Aib = CC(C)(N)C(=O)O

Key:
human GCGR = human GCGR (Homo sapiens, UniProt P47871); test: Peptide-receptor mediated cAMP accumulation (LANCE Ultra cAMP) in CHO-K1 cells transfected with human GCGR; assay type: cell-based; details: read-out: GluR pEC50 (converted)
Chain of human GCGR (P47871 26-477): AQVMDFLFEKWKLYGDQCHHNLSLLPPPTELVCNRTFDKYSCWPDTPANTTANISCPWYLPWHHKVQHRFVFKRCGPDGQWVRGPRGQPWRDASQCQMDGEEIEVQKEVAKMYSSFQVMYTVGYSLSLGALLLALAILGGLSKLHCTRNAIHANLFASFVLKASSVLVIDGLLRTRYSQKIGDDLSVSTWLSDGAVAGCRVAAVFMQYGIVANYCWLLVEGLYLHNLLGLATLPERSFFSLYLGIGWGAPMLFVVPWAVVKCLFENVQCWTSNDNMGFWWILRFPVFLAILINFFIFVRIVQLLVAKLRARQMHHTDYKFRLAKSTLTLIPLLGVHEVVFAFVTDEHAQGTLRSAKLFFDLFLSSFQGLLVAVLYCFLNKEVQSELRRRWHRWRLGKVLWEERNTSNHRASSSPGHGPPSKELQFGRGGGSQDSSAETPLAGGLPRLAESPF

human GLP-1R = human GLP-1R (Homo sapiens, UniProt P43220); test: Peptide-receptor mediated cAMP accumulation (LANCE Ultra cAMP) in CHO-K1 cells transfected with human GLP-1R; assay type: cell-based; details: Table 7; GLP-1R; read-out: GLP-1R pEC50 (converted)
Chain of human GLP-1R (P43220 24-463): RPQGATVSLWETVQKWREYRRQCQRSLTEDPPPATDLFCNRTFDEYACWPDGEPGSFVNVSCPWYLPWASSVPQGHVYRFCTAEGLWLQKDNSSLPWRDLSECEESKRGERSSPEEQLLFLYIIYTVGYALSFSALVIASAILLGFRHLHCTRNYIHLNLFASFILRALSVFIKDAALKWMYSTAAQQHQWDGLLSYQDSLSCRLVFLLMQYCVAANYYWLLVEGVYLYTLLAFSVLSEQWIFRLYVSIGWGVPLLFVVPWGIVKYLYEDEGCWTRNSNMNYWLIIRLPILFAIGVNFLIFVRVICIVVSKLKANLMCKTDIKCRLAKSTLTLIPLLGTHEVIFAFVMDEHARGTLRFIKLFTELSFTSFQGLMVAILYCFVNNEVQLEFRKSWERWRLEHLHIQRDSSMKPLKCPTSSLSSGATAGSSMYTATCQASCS

SMILES: CC(C)C[C@H](NC(=O)[C@H](Cc1c[nH]c2ccccc12)NC(=O)[C@H](CCCCNC(=O)COCCOCCNC(=O)COCCOCCNC(=O)CC[C@H](NC(=O)CCCCCCCCCCCCCCCCC(=O)O)C(=O)O)NC(=O)[C@@H](NC(=O)[C@H](Cc1ccccc1)NC(=O)[C@H](CCC(=O)O)NC(=O)[C@H](CCC(N)=O)NC(=O)[C@H](C)NC(=O)[C@H](Cc1ccc(O)cc1)NC(=O)[C@H](CCCCN)NC(=O)C(C)(C)NC(=O)[C@H](CC(=O)O)NC(=O)[C@H](CC(C)C)NC(=O)[C@H](Cc1ccc(O)cc1)NC(=O)[C@H](CCCCN)NC(=O)[C@H](CO)NC(=O)[C@H](Cc1ccc(O)cc1)NC(=O)[C@H](CC(=O)O)NC(=O)[C@H](CO)NC(=O)[C@@H](NC(=O)[C@H](Cc1ccccc1)NC(=O)[C@@H](NC(=O)CNC(=O)[C@H](Cc1c[nH]cn1)NC(=O)[C@H](CO)NC(=O)[C@@H](N)Cc1ccc(O)cc1)[C@@H](C)O)[C@@H](C)O)C(C)C)C(=O)N[C@@H](CCC(=O)O)C(=O)N[C@@H](CC(=O)O)C(=O)N[C@@H](CCC(=O)O)C(=O)N1CCC[C@H]1C(=O)N[C@@H](CO)C(=O)N[C@@H](CO)C(=O)NCC(=O)N[C@@H](C)C(=O)N1CCC[C@H]1C(=O)N1CCC[C@H]1C(=O)N1CCC[C@H]1C(=O)N[C@@H](CO)C(=O)O [Compound B6]
EC50 (human GCGR): 0.0794 nM | EC50 (human GLP-1R): > 1000 nM

SMILES: CC(C)C[C@H](NC(=O)[C@H](Cc1ccc(O)cc1)NC(=O)[C@H](CCCCN)NC(=O)[C@H](CO)NC(=O)[C@H](Cc1ccc(O)cc1)NC(=O)[C@H](CC(=O)O)NC(=O)[C@H](CO)NC(=O)[C@@H](NC(=O)[C@H](Cc1ccccc1)NC(=O)[C@@H](NC(=O)CNC(=O)[C@H](Cc1c[nH]cn1)NC(=O)[C@H](CO)NC(=O)[C@@H](N)Cc1ccc(O)cc1)[C@@H](C)O)[C@@H](C)O)C(=O)N[C@@H](CC(=O)O)C(=O)N[C@@H](CCCCNC(=O)COCCOCCNC(=O)COCCOCCNC(=O)CC[C@H](NC(=O)CCCCCCCCCCCCCCCCC(=O)O)C(=O)O)C(=O)N[C@@H](CCCCN)C(=O)N[C@@H](Cc1ccc(O)cc1)C(=O)N[C@@H](C)C(=O)N[C@@H](CCC(N)=O)C(=O)N[C@@H](CCC(=O)O)C(=O)N[C@@H](Cc1ccccc1)C(=O)N[C@H](C(=O)NC(C)(C)C(=O)N[C@@H](Cc1c[nH]c2ccccc12)C(=O)N[C@@H](CC(C)C)C(=O)N[C@@H](CCC(=O)O)C(=O)N[C@@H](CC(=O)O)C(=O)N[C@@H](CCC(=O)O)C(=O)N1CCC[C@H]1C(=O)N[C@@H](CO)C(=O)N[C@@H](CO)C(=O)NCC(=O)N[C@@H](C)C(=O)N1CCC[C@H]1C(=O)N1CCC[C@H]1C(=O)N1CCC[C@H]1C(=O)N[C@@H](CO)C(=O)O)C(C)C [Compound B7]
EC50 (human GCGR): 2.51 nM | EC50 (human GLP-1R): > 1000 nM

SMILES: CC(C)C[C@H](NC(=O)[C@H](Cc1ccc(O)cc1)NC(=O)[C@H](CCCCN)NC(=O)[C@H](CO)NC(=O)[C@H](CCCCNC(=O)COCCOCCNC(=O)COCCOCCNC(=O)CC[C@H](NC(=O)CCCCCCCCCCCCCCCCC(=O)O)C(=O)O)NC(=O)[C@H](CC(=O)O)NC(=O)[C@H](CO)NC(=O)[C@@H](NC(=O)[C@H](Cc1ccccc1)NC(=O)[C@@H](NC(=O)CNC(=O)[C@H](Cc1c[nH]cn1)NC(=O)[C@H](CO)NC(=O)[C@@H](N)Cc1ccc(O)cc1)[C@@H](C)O)[C@@H](C)O)C(=O)N[C@@H](CC(=O)O)C(=O)NC(C)(C)C(=O)N[C@@H](CCCCN)C(=O)N[C@@H](Cc1ccc(O)cc1)C(=O)N[C@@H](C)C(=O)N[C@@H](CCC(N)=O)C(=O)N[C@@H](CCC(=O)O)C(=O)N[C@@H](Cc1ccccc1)C(=O)N[C@H](C(=O)NC(C)(C)C(=O)N[C@@H](Cc1c[nH]c2ccccc12)C(=O)N[C@@H](CC(C)C)C(=O)N[C@@H](CCC(=O)O)C(=O)N[C@@H](CC(=O)O)C(=O)N[C@@H](CCC(=O)O)C(=O)N1CCC[C@H]1C(=O)N[C@@H](CO)C(=O)N[C@@H](CO)C(=O)NCC(=O)N[C@@H](C)C(=O)N1CCC[C@H]1C(=O)N1CCC[C@H]1C(=O)N1CCC[C@H]1C(=O)N[C@@H](CO)C(=O)O)C(C)C [Compound B8] (H-YSHGTFTSDK([AEEA-AEEA-γGlu-C18 diacid])SKYLD[Aib]KYAQEFV[Aib]WLEDEPSSGAPPPS-OH)
EC50 (human GCGR): 0.0251 nM | EC50 (human GLP-1R): > 1000 nM

SMILES: CCCCCCCCCCCCCCCC(=O)N[C@@H](CCC(=O)NCCCC[C@H](NC(=O)[C@@H](NC(=O)[C@H](Cc1ccccc1)NC(=O)[C@H](CCC(=O)O)NC(=O)[C@H](CCC(N)=O)NC(=O)[C@H](C)NC(=O)[C@H](CO)NC(=O)[C@H](CCCCN)NC(=O)C(C)(C)NC(=O)[C@H](CC(=O)O)NC(=O)[C@H](CC(C)C)NC(=O)[C@H](Cc1ccc(O)cc1)NC(=O)[C@H](CCCCN)NC(=O)[C@H](CO)NC(=O)[C@H](Cc1ccc(O)cc1)NC(=O)[C@H](CC(=O)O)NC(=O)[C@H](CO)NC(=O)[C@@H](NC(=O)[C@H](Cc1ccccc1)NC(=O)[C@@H](NC(=O)CNC(=O)[C@H](Cc1c[nH]cn1)NC(=O)[C@H](CO)NC(=O)[C@@H](N)Cc1ccc(O)cc1)[C@@H](C)O)[C@@H](C)O)C(C)C)C(=O)N[C@@H](Cc1c[nH]c2ccccc12)C(=O)N[C@@H](CC(C)C)C(=O)N[C@@H](CCC(=O)O)C(=O)N[C@@H](CC(=O)O)C(=O)N[C@@H](CCC(=O)O)C(=O)N1CCC[C@H]1C(=O)N[C@@H](CO)C(=O)N[C@@H](CO)C(=O)NCC(=O)N[C@@H](C)C(=O)N1CCC[C@H]1C(=O)N1CCC[C@H]1C(=O)N1CCC[C@H]1C(=O)N[C@@H](CO)C(=O)O)C(=O)O [Compound B10]
EC50 (human GCGR): 0.126 nM | EC50 (human GLP-1R): > 1000 nM

SMILES: CCCCCCCCCCCCCCCC(=O)N[C@@H](CCC(=O)NCCCC[C@H](NC(=O)[C@H](CC(=O)O)NC(=O)[C@H](CC(C)C)NC(=O)[C@H](Cc1ccc(O)cc1)NC(=O)[C@H](CCCCN)NC(=O)[C@H](CO)NC(=O)[C@H](Cc1ccc(O)cc1)NC(=O)[C@H](CC(=O)O)NC(=O)[C@H](CO)NC(=O)[C@@H](NC(=O)[C@H](Cc1ccccc1)NC(=O)[C@@H](NC(=O)CNC(=O)[C@H](Cc1c[nH]cn1)NC(=O)[C@H](CO)NC(=O)[C@@H](N)Cc1ccc(O)cc1)[C@@H](C)O)[C@@H](C)O)C(=O)N[C@@H](CCCCN)C(=O)N[C@@H](CO)C(=O)N[C@@H](C)C(=O)N[C@@H](CCC(N)=O)C(=O)N[C@@H](CCC(=O)O)C(=O)N[C@@H](Cc1ccccc1)C(=O)N[C@H](C(=O)NC(C)(C)C(=O)N[C@@H](Cc1c[nH]c2ccccc12)C(=O)N[C@@H](CC(C)C)C(=O)N[C@@H](CCC(=O)O)C(=O)N[C@@H](CC(=O)O)C(=O)N[C@@H](CCC(=O)O)C(=O)N1CCC[C@H]1C(=O)N[C@@H](CO)C(=O)N[C@@H](CO)C(=O)NCC(=O)N[C@@H](C)C(=O)N1CCC[C@H]1C(=O)N1CCC[C@H]1C(=O)N1CCC[C@H]1C(=O)N[C@@H](CO)C(=O)O)C(C)C)C(=O)O [Compound B11]
EC50 (human GCGR): 0.0501 nM | EC50 (human GLP-1R): 501 nM

SMILES: CCCCCCCCCCCCCCCC(=O)N[C@@H](CCC(=O)NCCCC[C@H](NC(=O)[C@H](CC(=O)O)NC(=O)[C@H](CO)NC(=O)[C@@H](NC(=O)[C@H](Cc1ccccc1)NC(=O)[C@@H](NC(=O)CNC(=O)[C@H](Cc1c[nH]cn1)NC(=O)[C@H](CO)NC(=O)[C@@H](N)Cc1ccc(O)cc1)[C@@H](C)O)[C@@H](C)O)C(=O)N[C@@H](CO)C(=O)N[C@@H](CCCCN)C(=O)N[C@@H](Cc1ccc(O)cc1)C(=O)N[C@@H](CC(C)C)C(=O)N[C@@H](CC(=O)O)C(=O)NC(C)(C)C(=O)N[C@@H](CCCCN)C(=O)N[C@@H](CO)C(=O)N[C@@H](C)C(=O)N[C@@H](CCC(N)=O)C(=O)N[C@@H](CCC(=O)O)C(=O)N[C@@H](Cc1ccccc1)C(=O)N[C@H](C(=O)NC(C)(C)C(=O)N[C@@H](Cc1c[nH]c2ccccc12)C(=O)N[C@@H](CC(C)C)C(=O)N[C@@H](CCC(=O)O)C(=O)N[C@@H](CC(=O)O)C(=O)N[C@@H](CCC(=O)O)C(=O)N1CCC[C@H]1C(=O)N[C@@H](CO)C(=O)N[C@@H](CO)C(=O)NCC(=O)N[C@@H](C)C(=O)N1CCC[C@H]1C(=O)N1CCC[C@H]1C(=O)N1CCC[C@H]1C(=O)N[C@@H](CO)C(=O)O)C(C)C)C(=O)O [Compound B12] (H-YSHGTFTSDK([γGlu-Palmitoyl])SKYLD[Aib]KSAQEFV[Aib]WLEDEPSSGAPPPS-OH)
EC50 (human GCGR): 0.00316 nM | EC50 (human GLP-1R): 63.1 nM

EC50 (human GCGR): 0.631 nM | EC50 (human GLP-1R): > 1000 nM
SMILES: CC(C)C[C@H](NC(=O)[C@H](Cc1ccc(O)cc1)NC(=O)[C@H](CCCCN)NC(=O)[C@H](CO)NC(=O)[C@H](Cc1ccc(O)cc1)NC(=O)[C@H](CC(=O)O)NC(=O)[C@H](CO)NC(=O)[C@@H](NC(=O)[C@H](Cc1ccccc1)NC(=O)[C@@H](NC(=O)CNC(=O)[C@H](Cc1c[nH]cn1)NC(=O)[C@H](CO)NC(=O)[C@@H](N)Cc1ccc(O)cc1)[C@@H](C)O)[C@@H](C)O)C(=O)N[C@@H](CC(=O)O)C(=O)NC(C)(C)C(=O)N[C@@H](CCCCN)C(=O)N[C@@H](CO)C(=O)N[C@@H](C)C(=O)N[C@@H](CCC(N)=O)C(=O)N[C@@H](CCC(=O)O)C(=O)N[C@@H](Cc1ccccc1)C(=O)N[C@H](C(=O)NC(C)(C)C(=O)N[C@@H](Cc1c[nH]c2ccccc12)C(=O)N[C@@H](CC(C)C)C(=O)N[C@@H](CCC(=O)O)C(=O)N[C@@H](CC(=O)O)C(=O)N[C@@H](CCC(=O)O)C(=O)N1CCC[C@H]1C(=O)N[C@@H](CO)C(=O)N[C@@H](CO)C(=O)N[C@@H](CCCCNC(=O)COCCOCCNC(=O)COCCOCCNC(=O)CC[C@H](NC(=O)CCCCCCCCCCCCCCCCC(=O)O)C(=O)O)C(=O)N[C@@H](C)C(=O)N1CCC[C@H]1C(=O)N1CCC[C@H]1C(=O)N1CCC[C@H]1C(=O)N[C@@H](CO)C(=O)O)C(C)C [Compound B13]
